In ChEMBL document CHEMBL2331362, “Identification of N-acyl 4-(5-pyrimidine-2,4-dionyl)phenylalanine derivatives and their orally active prodrug esters as dual-acting alpha4-beta1 and alpha4-beta7 receptor antagonists” (Bioorg Med Chem Lett, 2013):

How the values were obtained:
[1] = AUC (0 to 8 hrs) in rat at 10 mg/kg, iv; type: ADME, organism-based; set-up: time < 8 hr, dose 10 mg/kg, route intravenous; details: plasma
[2] = Apparent permeability across human Caco2 cells; type: ADME, cell-based; details: Caco-2
[3] = target: Integrin alpha-4/beta-7 (Homo sapiens) (UniProt P13612+P26010); experiment: Inhibition of human MAdCAM1 binding to integrin alpha4beta7 receptor in human RPMI 8866 cells labeled with Calcein AM relative to (S)-2-(2-chloro-6-methylbenzamido)-3-(4-(2,6-dichlorobenzamido)phenyl)propanoic acid; type: cell-based
[4] = target: T1, Integrin alpha-4/beta-1 (Homo sapiens, UniProt P05556+P13612); experiment: Inhibition of human VCAM1 binding to integrin alpha4beta1 receptor in human Ramos cells labeled with Calcein AM relative to (S)-2-(2-chloro-6-methylbenzamido)-3-(4-(2,6-dichlorobenzamido)phenyl)propanoic acid; type: cell-based
T1 sequence (P05556 whole entry, one chain of several): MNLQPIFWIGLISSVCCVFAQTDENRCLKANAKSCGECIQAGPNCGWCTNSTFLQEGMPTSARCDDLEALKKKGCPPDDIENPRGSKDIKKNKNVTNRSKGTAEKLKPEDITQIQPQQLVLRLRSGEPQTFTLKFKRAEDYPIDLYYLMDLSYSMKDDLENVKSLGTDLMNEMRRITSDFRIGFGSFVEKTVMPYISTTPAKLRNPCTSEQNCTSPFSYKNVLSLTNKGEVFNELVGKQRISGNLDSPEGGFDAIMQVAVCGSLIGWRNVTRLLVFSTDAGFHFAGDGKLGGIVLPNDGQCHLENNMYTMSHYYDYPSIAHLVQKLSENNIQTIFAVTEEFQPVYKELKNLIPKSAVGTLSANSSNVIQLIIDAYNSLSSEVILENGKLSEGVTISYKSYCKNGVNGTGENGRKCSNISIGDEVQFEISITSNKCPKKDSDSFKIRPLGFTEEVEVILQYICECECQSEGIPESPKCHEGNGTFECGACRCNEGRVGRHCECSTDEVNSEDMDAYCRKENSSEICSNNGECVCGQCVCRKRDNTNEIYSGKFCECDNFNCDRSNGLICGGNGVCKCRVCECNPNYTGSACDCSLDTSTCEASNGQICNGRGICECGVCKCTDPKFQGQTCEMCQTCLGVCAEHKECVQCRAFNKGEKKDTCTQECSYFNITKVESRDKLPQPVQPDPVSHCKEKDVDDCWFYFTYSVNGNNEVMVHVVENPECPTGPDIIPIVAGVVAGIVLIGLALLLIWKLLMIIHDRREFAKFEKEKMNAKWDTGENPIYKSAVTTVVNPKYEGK

[5] = target: T2, Integrin alpha-4/beta-7 (Homo sapiens, UniProt P13612+P26010); experiment: Inhibition of human MAdCAM1 binding to integrin alpha4beta7 receptor in human RPMI 8866 cells labeled with Calcein AM; type: cell-based
T2 sequence (P13612 whole entry): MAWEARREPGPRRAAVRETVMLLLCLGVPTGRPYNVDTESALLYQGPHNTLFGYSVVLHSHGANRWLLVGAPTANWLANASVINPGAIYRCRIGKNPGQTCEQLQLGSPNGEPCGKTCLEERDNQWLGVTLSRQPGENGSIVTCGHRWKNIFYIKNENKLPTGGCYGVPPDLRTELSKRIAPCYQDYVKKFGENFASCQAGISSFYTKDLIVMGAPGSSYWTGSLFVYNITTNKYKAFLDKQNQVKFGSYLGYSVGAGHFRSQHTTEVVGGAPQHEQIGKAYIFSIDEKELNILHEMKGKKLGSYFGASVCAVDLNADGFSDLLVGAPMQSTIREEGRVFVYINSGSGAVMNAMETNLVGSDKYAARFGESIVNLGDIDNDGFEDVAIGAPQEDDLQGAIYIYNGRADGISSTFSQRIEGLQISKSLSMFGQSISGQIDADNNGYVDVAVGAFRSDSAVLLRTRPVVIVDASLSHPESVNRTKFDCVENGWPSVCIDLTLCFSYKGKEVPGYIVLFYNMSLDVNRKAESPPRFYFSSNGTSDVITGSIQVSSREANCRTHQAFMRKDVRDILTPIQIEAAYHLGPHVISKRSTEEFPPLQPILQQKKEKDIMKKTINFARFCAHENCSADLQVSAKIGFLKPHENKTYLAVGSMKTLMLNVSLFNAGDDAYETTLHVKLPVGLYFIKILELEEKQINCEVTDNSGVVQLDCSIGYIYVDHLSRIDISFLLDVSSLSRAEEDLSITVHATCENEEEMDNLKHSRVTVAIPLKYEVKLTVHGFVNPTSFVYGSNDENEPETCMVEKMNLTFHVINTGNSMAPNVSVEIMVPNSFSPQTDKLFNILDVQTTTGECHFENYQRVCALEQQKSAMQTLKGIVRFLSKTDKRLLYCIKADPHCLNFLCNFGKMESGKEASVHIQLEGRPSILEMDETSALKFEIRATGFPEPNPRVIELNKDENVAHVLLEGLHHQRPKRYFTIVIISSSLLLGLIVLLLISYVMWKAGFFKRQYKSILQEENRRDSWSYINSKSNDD
T2 sequence (P26010 whole entry): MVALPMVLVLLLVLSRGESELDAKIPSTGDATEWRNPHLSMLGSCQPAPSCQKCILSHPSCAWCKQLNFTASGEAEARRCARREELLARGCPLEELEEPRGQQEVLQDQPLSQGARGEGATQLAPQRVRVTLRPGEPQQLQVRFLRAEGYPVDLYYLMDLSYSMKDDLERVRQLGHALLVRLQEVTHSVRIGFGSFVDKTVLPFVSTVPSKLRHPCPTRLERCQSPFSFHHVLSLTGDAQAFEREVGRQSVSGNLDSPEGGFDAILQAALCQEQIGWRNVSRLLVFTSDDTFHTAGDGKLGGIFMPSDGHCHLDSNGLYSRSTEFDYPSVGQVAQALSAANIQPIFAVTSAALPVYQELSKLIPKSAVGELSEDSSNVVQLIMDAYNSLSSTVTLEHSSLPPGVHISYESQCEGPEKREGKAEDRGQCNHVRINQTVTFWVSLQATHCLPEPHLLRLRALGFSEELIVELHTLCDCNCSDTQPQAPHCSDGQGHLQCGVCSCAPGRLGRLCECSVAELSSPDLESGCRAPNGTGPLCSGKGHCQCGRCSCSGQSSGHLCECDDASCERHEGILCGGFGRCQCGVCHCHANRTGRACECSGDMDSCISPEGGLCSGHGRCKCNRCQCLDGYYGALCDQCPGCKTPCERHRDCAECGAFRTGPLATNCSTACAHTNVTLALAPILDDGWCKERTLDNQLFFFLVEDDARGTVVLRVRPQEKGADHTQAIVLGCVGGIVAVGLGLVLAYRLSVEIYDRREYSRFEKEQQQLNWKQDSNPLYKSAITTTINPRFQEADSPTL

[6] = target: T1, Integrin alpha-4/beta-1; experiment: Inhibition of human VCAM1 binding to integrin alpha4beta1 receptor in human Ramos cells labeled with Calcein AM; type: cell-based
[7] = Distribution coefficient, log D of the compound; type: physicochemical; details: octanol/water
[8] = Mean residence time in cynomolgus monkey at 10 mg/kg, iv; type: ADME, organism-based, Macaca fascicularis; set-up: dose 10 mg/kg, route intravenous; details: in vivo
[9] = Mean residence time in dog at 5 mg/kg, iv; type: ADME, organism-based, Canis lupus familiaris; set-up: dose 5 mg/kg, route intravenous; details: in vivo
[10] = Mean residence time in rat at 10 mg/kg, iv; type: ADME, organism-based; set-up: dose 10 mg/kg, route intravenous; details: in vivo
[11] = Mean residence time in mouse at 10 mg/kg, iv; type: ADME, organism-based; set-up: dose 10 mg/kg, route intravenous; details: in vivo
[12] = Half life in cynomolgus monkey at 10 mg/kg, iv; type: ADME, organism-based, Macaca fascicularis; set-up: dose 10 mg/kg, route intravenous; details: in vivo
[13] = Half life in dog at 5 mg/kg, iv; type: ADME, organism-based, Canis lupus familiaris; set-up: dose 5 mg/kg, route intravenous; details: in vivo
[14] = Clearance in cynomolgus monkey at 10 mg/kg, iv; type: ADME, organism-based, Macaca fascicularis; set-up: dose 10 mg/kg, route intravenous; details: in vivo
[15] = Clearance in dog at 5 mg/kg, iv; type: ADME, organism-based, Canis lupus familiaris; set-up: dose 5 mg/kg, route intravenous; details: in vivo
[16] = Clearance in mouse at 10 mg/kg, iv; type: ADME, organism-based; set-up: dose 10 mg/kg, route intravenous; details: in vivo
[17] = Clearance in rat at 10 mg/kg, iv; type: ADME, organism-based; set-up: dose 10 mg/kg, route intravenous; details: in vivo
[18] = AUC (0 to 8 hrs) in cynomolgus monkey at 10 mg/kg, iv; type: ADME, organism-based, Macaca fascicularis; set-up: time < 8 hr, dose 10 mg/kg, route intravenous; details: plasma
[19] = AUC (0 to 8 hrs) in dog at 5 mg/kg, iv; type: ADME, organism-based, Canis lupus familiaris; set-up: time < 8 hr, dose 5 mg/kg, route intravenous; details: plasma
[20] = AUC (0 to 8 hrs) in mouse at 10 mg/kg, iv; type: ADME, organism-based; set-up: time < 8 hr, dose 10 mg/kg, route intravenous; details: plasma

AUC(0-t) at 8 h [1]: 41500 ng·h/mL
Papp [2]: 0.77 ×10⁻⁶ cm/s
Ratio IC50 [3]: 3.3
Ratio IC50 [4]: 3.2
IC50 [5]: 81 nM
IC50 [6]: 18 nM
logD [7]: -2.36
MRT [8]: 15 min
MRT [9]: 12.6 min
MRT [10]: 36.6 min
MRT [11]: 15.6 min
half-life [12]: 87.6 min
half-life [13]: 11.4 min
clearance [14]: 6.88 mL/min/kg
clearance [15]: 29.7 mL/min/kg
clearance [16]: 21 mL/min/kg
clearance [17]: 4.8 mL/min/kg
AUC(0-t) at 8 h [18]: 22200 ng·h/mL
AUC(0-t) at 8 h [19]: 2790 ng·h/mL
AUC(0-t) at 8 h [20]: 7890 ng·h/mL
SMILES: Cc1c(-c2ccc(C[C@H](NC(=O)c3c(F)cccc3F)C(=O)O)cc2)c(=O)n(C)c(=O)n1C
